Reference: US20240174690A1, “ANNULATED 2-AMINO-3-CYANO THIOPHENES AND DERIVATIVES FOR THE TREATMENT OF CANCER” (BOEHRINGER INGELHEIM INTERNATIONAL GMBH, priority 2021, published 2024)
Converted amounts (≈) assume the structure as drawn. Read-outs that look alike come from different tables or passages of the source.

Legend:
[1] = system: KRAS G12C-dependent Ba/F3 cells; experiment: Ba/F3 proliferation assay, KRAS G12C; assay type: cell-based; details: Mus musculus, BaF3, 72 h, AlamarBlue
Procedure, shortened: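 Cells: murine Ba/F3 transduced with mutant KRAS by retrovirus, selected with 1 μg/mL puromycin, then weaned off IL-3. Compound exposure in duplicate, followed by AlamarBlue viability staining and curve fitting.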

NCI-H2122 cells = experiment: NCI-H2122 CTG proliferation assay (120 h) (NSCLC, G12C); assay type: cell-based; details: Homo sapiens
Procedure, shortened: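 Proliferation was read by CellTiter-Glo luminescence after 120 h of compound exposure, starting one day after seeding 200 NCI-H2122 (G12C) cells per well in RPMI/10% FCS. RLU relative to DMSO wells gave percent viability, and four-parameter nonlinear regression gave IC50.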

[2] = Solubility measurement (DMSO solution method), McIlvaine buffer pH 4.5 or 6.8; assay type: physicochemical; details: aqueous buffer, kinetic from dmso stock, DMSO stock diluted to 250 μM, 24 h shaking at ambient temperature
Procedure, shortened: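 Filtrate concentration by LC-UV, calibrated to a known-concentration reference dissolved completely in acetonitrile/water (1:1). Samples came from 250 µM final dilutions of DMSO stock in pH 4.5 or 6.8 McIlvaine buffer, shaken 24 h at ambient temperature, then filtered.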

[3] = Caco-2 assay (permeability PappAB, PappBA, efflux ratio); assay type: in vitro ADME; details: human, Caco-2, 10 μM test compound, pH 7.4; for Papp A→B at 90 min, 10 μM: apical to basolateral; for efflux ratio at 90 min, 10 μM: efflux ratio PappBA/PappAB, read-out: Caco ER
Procedure, shortened: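 Bidirectional permeability (apical-to-basolateral and reverse) through polarized Caco-2 monolayers, BSA 0.25% on each side, 37 °C. Donor and receiver sampled at 0-90 min after 25-30 min preincubation, analysed by HPLC/MS/MS. Apparent permeabilities derived from transfer rate normalised to area and t=0 donor concentration; ER taken as PappBA over PappAB.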

[4] = McIlvaine buffer pH 4.5, read-out: solubility pH 4.5
[5] = McIlvaine buffer pH 6.8, read-out: solubility pH 6.8

| SMILES | IC50 [1] [µM] | IC50 (NCI-H2122 cells) [µM] | solubility at 24 h [2, 4] [µg/mL] | solubility at 24 h [2, 5] [µg/mL] | Papp A→B at 90 min, 10 μM [3] [×10⁻⁶ cm/s] | efflux ratio at 90 min, 10 μM [3] |
| --- | --- | --- | --- | --- | --- | --- |
| C[C@H](Oc1cc(N2CCNC3(COC3)C2)nc(-c2onc3c2CCC[C@@]32CCCc3sc(N)c(C#N)c32)n1)[C@@H]1CCCN1C [I-4] | 0.069 | 3.75 | > 148 | > 140 | < 4.8 | – |
| C[C@H](Oc1cc(C2CCCO2)nc(-c2noc3c2CCC[C@@]32CCCc3sc(N)c(C#N)c32)n1)[C@@H]1CCCN1C (some centres unmarked) [II-44] | 0.028 | 1.58 | > 115 | 104 (≈ 185 µM) | 15 | 1.5 |
| C[C@H](Oc1nc(-c2noc3c2CCC[C@@]32CCCc3sc(N)c(C#N)c32)cc(N2C[C@H](C)N[C@@H](C)C2)n1)[C@@H]1CCCN1C [II-46] | 0.05 | 0.9 | > 150 | > 150 | 0.8 | 28.8 |
| C[C@H](Oc1cc(-c2ccn(C)n2)nc(-c2noc3c2CCC[C@@]32CCCc3sc(N)c(C#N)c32)n1)[C@@H]1C[C@@H](F)CN1C [II-27] | 0.018 | 0.898 | 108 (≈ 183 µM) | < 1 | 11 | 0.7 |
| C[C@H](Oc1cc(N2CCNC3(CCC3)C2)nc(-c2onc3c2CCC[C@@]32CCCc3sc(N)c(C#N)c32)n1)[C@@H]1CCCN1C [I-3] | 0.345 | 3.37 | > 173 | > 176 | 1.2 | 20.8 |
| C[C@H](Oc1cc(N2CC[C@H](N3CCCCC3)C2)nc(-c2noc3c2CCC[C@@]32CCCc3sc(N)c(C#N)c32)n1)[C@@H]1CCCN1C [II-12] | 0.438 | 1.39 | > 143 | > 137 | – | 12.1 |
| C[C@H](Oc1cc(-c2ccn(C[C@@H](C)O)n2)nc(-c2onc3c2CCC[C@@]32CCCc3sc(N)c(C#N)c32)n1)[C@@H]1CCCN1C [I-30] | 0.009 | 0.837 | > 150 | > 141 | 2 | 18.5 |
| C[C@H](Oc1cc(-c2cnsc2)nc(-c2onc3c2CCC[C@@]32CCCc3sc(N)c(C#N)c32)n1)[C@@H]1CCCN1C [I-27] | 0.018 | 0.599 | 67 (≈ 117 µM) | 1 (≈ 1.74 µM) | – | 1.1 |
| C[C@H](Oc1cc([C@H]2CCN(C)C2)nc(-c2noc3c2CCC[C@@]32CCCc3sc(N)c(C#N)c32)n1)[C@@H]1CCCN1C [II-38] | 0.066 | 2.59 | – | – | 0.2 | 104 |
| C[C@H](Oc1cc(N2C[C@@H](N(C)C)[C@@H](O)C2)nc(-c2noc3c2CCC[C@@]32CCCc3sc(N)c(C#N)c32)n1)[C@@H]1CCCN1C [II-10] | 0.844 | 8.44 | > 143 | > 135 | 0.3 | 68 |
| C[C@H](Oc1cc(N2CCC(N(C)C)CC2)nc(-c2noc3c2CCC[C@@]32CCCc3sc(N)c(C#N)c32)n1)[C@@H]1CCCN1C [II-48] | 0.724 | 3.1 | > 164 | > 149 | 0.6 | 32.2 |
| C[C@H](Oc1cc(-n2ccc(C(=O)NC3COC3)n2)nc(-c2noc3c2CCC[C@@]32CCCc3sc(N)c(C#N)c32)n1)[C@@H]1CCCN1C [II-25] | 0.003 | 0.033 | 124 (≈ 189 µM) | 73 (≈ 111 µM) | 1.1 | 22.7 |
| C[C@H]1CN(C)CCCN1c1cc(N2CC[C@H](N(C)C)C2)nc(-c2noc3c2CCC[C@@]32CCCc3sc(N)c(C#N)c32)n1 [II-16] | 1.57 | 3.53 | > 147 | > 132 | 0.5 | 33.3 |
| CO[C@@H]1C[C@@H]([C@H](C)Oc2cc(-c3ccn(C)n3)nc(-c3onc4c3CCC[C@@]43CCCc4sc(N)c(C#N)c43)n2)N(C)C1 [I-23] | 0.01 | 8.83 | 106 (≈ 176 µM) | < 1 | 9.2 | 1.5 |
| C[C@H](Oc1cc(-c2ccn([C@H]3CCCOC3)n2)nc(-c2noc3c2CCC[C@@]32CCCc3sc(N)c(C#N)c32)n1)[C@@H]1CCCN1C [II-42] | 0.034 | 0.357 | 119 (≈ 186 µM) | 9 (≈ 14 µM) | – | 2 |
| C[C@H](Oc1cc(N2CCNC3(COC3)C2)nc(-c2noc3c2CCC[C@@]32CCCc3sc(N)c(C#N)c32)n1)[C@@H]1CCCN1C [II-31] | 0.069 | 2.55 | > 151 | > 133 | < 0.1 | – |

| SMILES | IC50 [1] [µM] | IC50 (NCI-H2122 cells) [µM] | solubility at 24 h [2, 4] [µg/mL] | solubility at 24 h [2, 5] [µg/mL] | Papp A→B at 90 min, 10 μM [3] [×10⁻⁶ cm/s] | efflux ratio at 90 min, 10 μM [3] |
| --- | --- | --- | --- | --- | --- | --- |
| C[C@H](Oc1cc(-c2ccn(C[C@@H]3CCCO3)n2)nc(-c2noc3c2CCC[C@@]32CCCc3sc(N)c(C#N)c32)n1)[C@@H]1CCCN1C [II-43] | 0.037 | 0.102 | 121 (≈ 189 µM) | 9 (≈ 14 µM) | 10 | 1.2 |
| C[C@H](Oc1cc(N2CC(N(C)C)C2)nc(-c2noc3c2CCC[C@@]32CCCc3sc(N)c(C#N)c32)n1)[C@@H]1CCCN1C [II-7] | 0.277 | 3.5 | > 141 | > 134 | 1.3 | 21.5 |
| C[C@@H]1CN(c2cc(O[C@@H](C)[C@@H]3CCCN3C)nc(-c3noc4c3CCC[C@@]43CCCc4sc(N)c(C#N)c43)n2)C[C@H](C)N1 [II-36] | 0.33 | 3.48 | > 146 | > 140 | – | – |
| Cc1nc(-c2cc(O[C@@H](C)[C@@H]3CCCN3C)nc(-c3onc4c3CCC[C@@]43CCCc4sc(N)c(C#N)c43)n2)cs1 [I-24] | 0.009 | 0.93 | 68 (≈ 116 µM) | < 1 | – | – |
| CN[C@H]1CCN(c2cc(O[C@@H](C)[C@@H]3CCCN3C)nc(-c3noc4c3CCC[C@@]43CCCc4sc(N)c(C#N)c43)n2)C1 [II-35] | 1.29 | 4.8 | – | – | < 0.5 | – |
| C[C@H](Oc1cc(-c2ccn(CC(C)(C)O)n2)nc(-c2onc3c2CCC[C@@]32CCCc3sc(N)c(C#N)c32)n1)[C@@H]1CCCN1C [I-26] | 0.017 | 1.07 | – | – | 3 | 10.7 |
| C[C@H](Oc1cc(N2CCNCC2)nc(-c2noc3c2CCC[C@@]32CCCc3sc(N)c(C#N)c32)n1)[C@@H]1CCCN1C [II-45] | 0.606 | 10.6 | > 135 | > 118 | – | – |
| CCOC(=O)c1ccn(-c2cc(O[C@@H](C)[C@@H]3CCCN3C)nc(-c3noc4c3CCC[C@@]43CCCc4sc(N)c(C#N)c43)n2)n1 [II-23] | 0.008 | 2.95 | 75 (≈ 119 µM) | < 1 | – | – |
| C[C@H](Oc1cc(N2CCNC3(CCCC3)C2)nc(-c2noc3c2CCC[C@@]32CCCc3sc(N)c(C#N)c32)n1)[C@@H]1CCCN1C [II-41] | 0.49 | 1.65 | > 138 | > 130 | – | – |
| C[C@H](Oc1cc(N2C[C@@H](N(C)C)[C@@H](F)C2)nc(-c2noc3c2CCC[C@@]32CCCc3sc(N)c(C#N)c32)n1)[C@@H]1CCCN1C [II-11] | 0.241 | 3.51 | > 150 | > 141 | – | – |
| C[C@H](Oc1cc(N2CC[C@@H](N(C)C)C2)nc(-c2noc3c2CCC[C@@]32CCCc3sc(N)c(C#N)c32)n1)[C@@H]1CCCN1C [II-47] | 0.24 | 2.02 | > 162 | > 145 | – | – |
| C[C@H](Oc1cc(N2C[C@H]3CN(C)C[C@H]3C2)nc(-c2noc3c2CCC[C@@]32CCCc3sc(N)c(C#N)c32)n1)[C@@H]1CCCN1C [II-33] | 0.527 | 4.12 | – | – | 0.4 | 52.3 |
| C[C@H](Oc1cc(-c2ccn3ncnc3c2)nc(-c2onc3c2CCC[C@@]32CCCc3sc(N)c(C#N)c32)n1)[C@@H]1CCCN1C [I-33] | 0.014 | 1.42 | 8 (≈ 13.2 µM) | 4 (≈ 6.58 µM) | – | – |
| C[C@H](Oc1cc(-n2ccc(C(=O)N3CCCC3)n2)nc(-c2noc3c2CCC[C@@]32CCCc3sc(N)c(C#N)c32)n1)[C@@H]1CCCN1C [II-19] | 0.005 | 0.019 | 89 (≈ 136 µM) | < 1 | – | – |
| C[C@H](Oc1cc(Cl)nc(-c2onc3c2CCC[C@@]32CCCc3sc(N)c(C#N)c32)n1)[C@@H]1CCCN1C [I-1] | 0.077 | 4.12 | > 125 | 101 (≈ 192 µM) | – | – |
